Data as given in publication PMC10198977, “Computational design of dynamic receptor—peptide signaling complexes applied to chemotaxis” (Nature Communications, 2023).
Residues, ends and D or L forms follow the SMILES beside them. No end group written: not given here.

Legend:
[1] = target: T1, Csedy (Homo sapiens, UniProt P61073); assay: Calcium mobilization of peptides on Csedy; type: cell-based; details: Csedy receptor, Ca
Description: (§1) Lyophilized peptides were stored at −80 °C and resuspended in assay buffer on the day of the experiment.
(§2) Calcium mobilization assays
(§3) 40,000 HEK 293T cells (gift from Prof. Ted Wensel at Baylor College of Medicine) were transiently transfected with 50 ng WT or variant HA3-CXCR4, 10 ng GNA15 in pcDNA3.1(+). To equalize receptor surface expression, 75 ng of HA3-CXCR4 was used for the Csel2 variant. Cells were first seeded in 100 µL DMEM (Gibco, ref: 41965-039) 10 % FBS in a black-walled, clear-bottom 96-well plate coated with poly-lysine (Sigma, ref: P6407-5MG). Directly after cell loading, 50 µL of the mixture containing 0.5 µL Lipofectamine 2000 (Invitrogen, ref: 11668-019) and the DNA was added on top of the cells. The cells were incubated at 37 °C, 5% CO2, and 95% relative humidity for 20 h, after which, media was refreshed with 150 µL DMEM + 10% FBS. Cells were assayed 48 h post-transfection. Cells were washed with 200 µL FLIPR6 buffer (HBSS + 20 mM HEPES, pH 7.4), then incubated at 37 °C, 5% CO2, and 95% relative humidity for 2 h in 200 µL dye buffer according to the manufacturer’s protocol (Molecular Devices, ref: R8190). Just before the assay, 5× concentrated peptide solutions were prepared in FLIPR6 buffer in a V-bottom 96-well plate. After incubation, peptide solutions were added at a rate of 16 µL/s after 30 s and fluorescence changes were monitored for 90 s after addition using microplate reader FlexStation3 (Molecular Devices). The maximum response after correction by the mock-transfected condition was averaged from three replicates. Values were then plotted against selected concentrations and fitted to a sigmoidal curve using GraphPad Prism v9.

[2] = target: T1, Csedy; assay: Gαi BRET of peptides on Csedy; type: cell-based; details: Csedy receptor; for log(EC50): Gi
Description: as §1
(§4) 40,000 HEK 293T cells were transiently transfected with WT or variant HA3-CXCR4, Gαi1−91-Rluc8, Gβ3-WT, and Gγ9-GFP2 in pcDNA3.1(+) at a ratio of 10:1:10:5 respectively. Cells were first seeded in 100 µL DMEM 10% FBS in a poly-lysine coated, white-walled, white-bottom 96-well plate. Directly after cell loading, 50 µL of the mixture containing Lipofectamine 2000 and the DNA was added on top of the cells. The cells were then left to incubate at 37 °C, 5% CO2, and 95% relative humidity for 20 h, after which, 150 µL media was refreshed. Cells were assayed 48 h post-transfection. Cells were washed with 150 µL PBS, then 40 µL BRET buffer (HBSS, 0.2% Glucose) was added to each well. Coelenterazine 400a was first added at a final concentration of 2.5 µM and BRET ratios were measured once using Mithras[2] LB 943 plate reader. After the first measurement, 40 µL of a 3x concentrated agonist solution was added to each well, and BRET ratios were measured for another 30 min using a Mithras[2] LB 943 plate reader. Mock-transfected controls were subtracted from the data. Maximum values averaged from 3 replicates were then plotted against selected concentrations and fitted to a sigmoidal curve using GraphPad Prism v9.

[3] = target: T2, WT CXCR4 (Homo sapiens, UniProt P61073); assay: Calcium mobilization of peptides on WT CXCR4; type: cell-based; details: WT receptor, Ca
Description: as §1, §2, §3

[4] = target: T2, WT CXCR4; assay: Gαi BRET of peptides on WT CXCR4; type: cell-based; details: WT receptor, Gi
Description: as §1, §4

[5] = target: Cdyn designed CXCR4 receptor (UniProt P61073)
[6] = target: Csedy designed CXCR4 receptor (UniProt P61073)
[7] = target: Csedy designed CXCR4 receptor (UniProt P61073); remark: listed apart in the source
[8] = target: Cdyn designed CXCR4 receptor (UniProt P61073); remark: listed apart in the source
[9] = target: Csel2 designed CXCR4 receptor (UniProt P61073)
[10] = target: Csel2 designed CXCR4 receptor (UniProt P61073); remark: listed apart in the source
[11] = target: WT CXCR4 with an N-terminal 3xHA-tag (UniProt P61073)
[12] = system: CXCR4 variant ligand-binding cavity; assay: Receptor cavity cross-sectional area and structure-function map; details: receptor–peptide pair; Fig. 5c z-axis
Description: Calculation of receptor cavity cross-sectional area
To quantify the conformational diversity of the ligand binding site between receptor variants, the ligand-binding pocket of the receptor models (from whose the ligand molecule was removed) was geometrically described using pyKVFinder[75]. Cavities were defined using a 1.2 Å probe over a cubic lattice (0.25 Å vertex). A 4.0 Å probe was used to define the entrance of the cavity.

[13] = system: Gαi activation; assay: Gαi dissociation BRET of designed receptors with WT CXCL12(1-17) peptide; type: cell-based; details: WT CXCL12 peptide
Description: as §1, §4

T2 sequence (P61073 whole entry): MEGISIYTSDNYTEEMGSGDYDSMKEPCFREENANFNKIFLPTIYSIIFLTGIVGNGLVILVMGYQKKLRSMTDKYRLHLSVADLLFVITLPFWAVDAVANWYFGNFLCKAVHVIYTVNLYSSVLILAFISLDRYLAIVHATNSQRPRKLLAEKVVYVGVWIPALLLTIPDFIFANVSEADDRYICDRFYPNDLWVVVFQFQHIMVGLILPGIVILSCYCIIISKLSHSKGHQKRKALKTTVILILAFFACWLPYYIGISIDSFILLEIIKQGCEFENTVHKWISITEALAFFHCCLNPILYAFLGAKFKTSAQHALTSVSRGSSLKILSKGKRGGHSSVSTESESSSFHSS
T1 sequence (P61073 whole entry): as above

CC(C)C[C@H](NC(=O)[C@H](CO)NC(=O)[C@H](Cc1ccc(O)cc1)NC(=O)[C@@H]1CCCN1C(=O)[C@@H](N)CCCCN)C(=O)N[C@@H](CO)C(=O)N[C@@H](CC(C)C)C(=O)N[C@@H](CCCNC(=N)N)C(=O)N[C@@H](CS)C(=O)N1CCC[C@H]1C(=O)N[C@@H](CS)C(=O)N[C@@H](CCCNC(=N)N)C(=O)N[C@@H](Cc1ccccc1)C(=O)N[C@@H](Cc1ccccc1)C(=O)N[C@@H](CCC(=O)O)C(=O)N[C@@H](CO)C(=O)N[C@@H](Cc1c[nH]cn1)C(N)=O [V3Y-Y7L] (H-KPYSLSLRCPCRFFESH-NH2)
Efficacy ([1]; average (n=3)): 102.027 % WT | log(EC50) ([1]; replicate 1): -5.519 | log(EC50) ([1]; replicate 2): -5.737 | log(EC50) ([1]; replicate 3): -5.907 | increase in efficacy ([2]; vs WT receptor–peptide pair): > 34% | log(EC50) ([2]; replicate 1): -6.83 | log(EC50) ([2]; replicate 2): -7.058 | log(EC50) ([2]; replicate 3): -7.474

CC(C)C[C@H](NC(=O)[C@H](CO)NC(=O)[C@@H](NC(=O)[C@@H]1CCCN1C(=O)[C@@H](N)CCCCN)C(C)C)C(=O)N[C@@H](CO)C(=O)N[C@@H](Cc1ccc(O)cc1)C(=O)N[C@@H](CCCNC(=N)N)C(=O)N[C@@H](CS)C(=O)N1CCC[C@H]1C(=O)N[C@@H](CS)C(=O)N[C@@H](CCCNC(=N)N)C(=O)N[C@@H](Cc1ccccc1)C(=O)N[C@@H](Cc1ccccc1)C(=O)N[C@@H](CCC(=O)O)C(=O)N[C@@H](CO)C(=O)N[C@@H](Cc1c[nH]cn1)C(N)=O [WT, reference compound] (H-KPVSLSYRCPCRFFESH-NH2)
Efficacy ([3]; average (n=3)): 100 % WT | EC50 ([3]; replicate 1): 12.9 µM | EC50 ([3]; replicate 2): 8.57 µM | EC50 ([3]; replicate 3): 15.3 µM | Efficacy ([4]; average (n=3)): 100 % WT | EC50 ([4]; replicate 1): 11.2 µM | EC50 ([4]; replicate 2): 9.75 µM | EC50 ([4]; replicate 3): 12 µM

B1: CXCL12 V3Y variant peptide (17 N-terminal residues) (peptide)
peptide: KPYSLSYRCPCRFFESH-NH2
modifications: cysteine pairing not given here
efficacy of signaling, increase over the WT receptor-peptide pair [5]: 25% | potency of signaling, fold over the WT receptor-peptide pair [5]: > 80 fold

B2: CXCL12 V3Y-Y7L variant peptide (17 N-terminal residues) (peptide)
peptide: KPYSLSLRCPCRFFESH-NH2
modifications: cysteine pairing not given here
efficacy of signaling, increase [6]: 34% | potency of signaling, fold increase [6]: > 100 fold

B3: wild-type peptide of the 17 N-terminal residues of CXCL12 (peptide)
peptide: KPVSLSYRCPCRFFESH-NH2
modifications: cysteine pairing not given here
Gαi response (BRET) against WT CXCL12 peptide, fold increase over WT CXCR4 [7]: > 9 fold | Gαi efficacy (BRET, WT CXCL12 peptide), increase over the CXCR4 WT scaffold [8]: 20% | Gαi potency (BRET, WT CXCL12 peptide), fold over the CXCR4 WT scaffold [8]: 11 fold | potency in Gαi-coupling (BRET, HEK 293T cells, WT CXCL12 peptide), fold over WT CXCR4 [9]: 3.2 fold | potency in calcium mobilization (HEK 293T cells, WT CXCL12 peptide), fold over WT CXCR4 [9]: 3.1 fold

B4: CXCL12 Y7L variant peptide (17 N-terminal residues) (peptide)
peptide: KPVSLSLRCPCRFFESH-NH2
modifications: cysteine pairing not given here
Gαi efficacy (BRET) with the Y7L peptide, increase [10]: 30% | overall Gαi response (BRET) with the Y7L peptide, decrease [11]: 18%

B5: Cdyn: CXCR4 receptor design maintaining conformational dynamism; 3 mutations (protein, UniProt P61073 1-352, looked up, variant L41A S178A H113N)
C-X-C chemokine receptor type …: MEGISIYTSDNYTEEMGSGDYDSMKEPCFREENANFNKIFAPTIYSIIFLTGIVGNGLVILVMGYQKKLRSMTDKYRLHLSVADLLFVITLPFWAVDAVANWYFGNFLCKAVNVIYTVNLYSSVLILAFISLDRYLAIVHATNSQRPRKLLAEKVVYVGVWIPALLLTIPDFIFANVAEADDRYICDRFYPNDLWVVVFQFQHIMVGLILPGIVILSCYCIIISKLSHSKGHQKRKALKTTVILILAFFACWLPYYIGISIDSFILLEIIKQGCEFENTVHKWISITEALAFFHCCLNPILYAFLGAKFKTSAQHALTSVSRGSSLKILSKGKRGGHSSVSTESESSSFHSS
Potency (activity shift from WT) [12]: 1.794 | enhanced potency from WT ([13]; up to): up to 11 -fold | enhanced potency in Gαi-coupling ([13]; over WT CXCR4): ~11 -fold | increase in efficacy (Gαi) ([13]; vs WT CXCR4): 20%
